According to the NIST ThermoML archive (doi:10.1016/j.jct.2017.06.002):
Numbers after ± are expanded uncertainties.

Assay: xn = mol fraction of the nth substance listed
Conditions: 100 kPa, Liquid; for viscosity: Concentric cylinders viscometry; for mass density: Vibrating tube method

COCOCOCOC [2,4,6,8-tetraoxanonane] + COCOCOC
Conditions | mass density [kg/m3] | viscosity [mPa·s]
288.15 K, x2 = 0 | 1037.5 ± 2 | 1.259 ± 0.051
288.15 K, x2 = 0.06 | 1034.7 ± 2.3 | 1.278 ± 0.051
288.15 K, x2 = 0.12 | 1031.3 ± 2.2 | 1.281 ± 0.051
288.15 K, x2 = 0.18 | 1029.5 ± 2.1 | 1.273 ± 0.051
288.15 K, x2 = 0.24 | 1027.1 ± 2.1 | 1.261 ± 0.051
288.15 K, x2 = 0.35 | 1024.2 ± 2.1 | 1.228 ± 0.051
288.15 K, x2 = 0.45 | 1021.1 ± 2.1 | 1.185 ± 0.051
288.15 K, x2 = 0.55 | 1018.1 ± 2.1 | 1.142 ± 0.051
288.15 K, x2 = 0.65 | 1014.3 ± 2.2 | 1.096 ± 0.051
288.15 K, x2 = 0.74 | 1010.1 ± 2.2 | 1.051 ± 0.052
288.15 K, x2 = 0.83 | 1006.2 ± 2.2 | 1.001 ± 0.051
288.15 K, x2 = 0.92 | 1002.3 ± 2.2 | 0.9612 ± 0.051
293.15 K, x2 = 0 | 1030.2 ± 2 | 1.166 ± 0.051
293.15 K, x2 = 0.06 | 1028.4 ± 2.1 | 1.174 ± 0.051
293.15 K, x2 = 0.12 | 1025.9 ± 2.1 | 1.177 ± 0.051
293.15 K, x2 = 0.18 | 1024.5 ± 2.1 | 1.17 ± 0.051
293.15 K, x2 = 0.24 | 1022.7 ± 2.1 | 1.159 ± 0.051
293.15 K, x2 = 0.35 | 1019.5 ± 2.1 | 1.128 ± 0.051
293.15 K, x2 = 0.45 | 1016.1 ± 2.1 | 1.093 ± 0.051
293.15 K, x2 = 0.55 | 1012.8 ± 2.1 | 1.058 ± 0.051
293.15 K, x2 = 0.65 | 1009.1 ± 2.2 | 1.021 ± 0.051
293.15 K, x2 = 0.74 | 1005.3 ± 2.2 | 0.9894 ± 0.051
293.15 K, x2 = 0.83 | 1001.7 ± 2.2 | 0.9628 ± 0.051
293.15 K, x2 = 0.92 | 998.2 ± 2.1 | 0.9384 ± 0.051
298.15 K, x2 = 0 | 1023.4 ± 2 | 1.084 ± 0.051
298.15 K, x2 = 0.06 | 1022.3 ± 2 | 1.093 ± 0.051
298.15 K, x2 = 0.12 | 1021.2 ± 2.1 | 1.098 ± 0.051
298.15 K, x2 = 0.18 | 1019.5 ± 2.1 | 1.093 ± 0.051
298.15 K, x2 = 0.24 | 1018.1 ± 2.1 | 1.084 ± 0.051
298.15 K, x2 = 0.35 | 1014.5 ± 2.1 | 1.059 ± 0.051
298.15 K, x2 = 0.45 | 1011.2 ± 2.1 | 1.032 ± 0.051
298.15 K, x2 = 0.55 | 1007.8 ± 2.1 | 1.002 ± 0.051
298.15 K, x2 = 0.65 | 1004.1 ± 2.1 | 0.9754 ± 0.051
298.15 K, x2 = 0.74 | 1000.5 ± 2.2 | 0.9543 ± 0.051
298.15 K, x2 = 0.83 | 996.4 ± 2.2 | 0.9353 ± 0.051
298.15 K, x2 = 0.92 | 993 ± 2.1 | 0.9189 ± 0.051
303.15 K, x2 = 0 | 1016.6 ± 2 | 1.028 ± 0.051
303.15 K, x2 = 0.06 | 1016.4 ± 2 | 1.038 ± 0.051
303.15 K, x2 = 0.12 | 1015.9 ± 2 | 1.042 ± 0.051
303.15 K, x2 = 0.18 | 1014.5 ± 2.1 | 1.037 ± 0.051
303.15 K, x2 = 0.24 | 1013.1 ± 2.1 | 1.031 ± 0.051
303.15 K, x2 = 0.35 | 1009.9 ± 2.1 | 1.01 ± 0.051
303.15 K, x2 = 0.45 | 1006.5 ± 2.1 | 0.9913 ± 0.051
303.15 K, x2 = 0.55 | 1003.2 ± 2.1 | 0.9667 ± 0.051
303.15 K, x2 = 0.65 | 999.3 ± 2.2 | 0.9452 ± 0.051
303.15 K, x2 = 0.74 | 995.5 ± 2.2 | 0.9283 ± 0.051
303.15 K, x2 = 0.83 | 991.3 ± 2.2 | 0.9135 ± 0.051
303.15 K, x2 = 0.92 | 987.6 ± 2.2 | 0.9007 ± 0.051
308.15 K, x2 = 0 | 1011 ± 2 | 0.9921 ± 0.051
308.15 K, x2 = 0.06 | 1011.01 ± 2 | 0.9966 ± 0.051
308.15 K, x2 = 0.12 | 1010.7 ± 2 | 0.9977 ± 0.051
308.15 K, x2 = 0.18 | 1010.32 ± 2 | 0.9959 ± 0.051
308.15 K, x2 = 0.24 | 1008.6 ± 2.1 | 0.9894 ± 0.051
308.15 K, x2 = 0.35 | 1005.6 ± 2.1 | 0.9741 ± 0.051
308.15 K, x2 = 0.45 | 1002.1 ± 2.1 | 0.9577 ± 0.051
308.15 K, x2 = 0.55 | 998.9 ± 2.1 | 0.938 ± 0.051
308.15 K, x2 = 0.65 | 995 ± 2.2 | 0.9204 ± 0.051
308.15 K, x2 = 0.74 | 990.8 ± 2.2 | 0.9067 ± 0.051
308.15 K, x2 = 0.83 | 986.8 ± 2.2 | 0.8938 ± 0.051
308.15 K, x2 = 0.92 | 982.8 ± 2.2 | 0.8828 ± 0.051
313.15 K, x2 = 0 | 1005 ± 2 | 0.9521 ± 0.05
313.15 K, x2 = 0.06 | 1006.5 ± 2 | 0.9668 ± 0.051
313.15 K, x2 = 0.12 | 1007 ± 2 | 0.9724 ± 0.051
313.15 K, x2 = 0.18 | 1006.3 ± 2 | 0.9671 ± 0.051
313.15 K, x2 = 0.24 | 1005.5 ± 2.1 | 0.9597 ± 0.051
313.15 K, x2 = 0.35 | 1002.4 ± 2.1 | 0.9453 ± 0.051
313.15 K, x2 = 0.45 | 998.3 ± 2.1 | 0.9308 ± 0.051
313.15 K, x2 = 0.55 | 994.9 ± 2.1 | 0.916 ± 0.051
313.15 K, x2 = 0.65 | 990.8 ± 2.2 | 0.9008 ± 0.051
313.15 K, x2 = 0.74 | 987 ± 2.2 | 0.8876 ± 0.051
313.15 K, x2 = 0.83 | 983 ± 2.2 | 0.8758 ± 0.051
313.15 K, x2 = 0.92 | 979 ± 2.3 | 0.8652 ± 0.051
